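These data come from cells grown in 96-well plates and exposed to compound for 48 hours at five concentrations. Here, GI50 denotes the concentration required for 50% inhibition of growth. TGI: total growth inhibition.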
Experiments:
Test in all cases: DTP human tumour cell line panel, 48 h
[1] = tested on: SK-OV-3 ovarian
[2] = tested on: UACC-62 melanoma
[3] = tested on: T-47D breast
[4] = tested on: LOX IMVI melanoma
[5] = tested on: MCF7 breast
[6] = tested on: NCI/ADR-RES ovarian
[7] = tested on: EKVX NSCLC
[8] = tested on: UO-31 renal
[9] = tested on: ACHN renal
[10] = tested on: SK-MEL-5 melanoma

| SMILES | TGI [1] [µM] | TGI [2] [µM] | TGI [3] [µM] | TGI [4] [µM] | TGI [5] [µM] | TGI [6] [µM] | TGI [7] [µM] | TGI [8] [µM] | TGI [9] [µM] | TGI [10] [µM] | GI50 [1] [nM] | GI50 [2] [nM] | GI50 [3] [nM] | GI50 [4] [nM] | GI50 [5] [nM] | GI50 [7] [nM] | GI50 [10] [nM] |
| --- | --- | --- | --- | --- | --- | --- | --- | --- | --- | --- | --- | --- | --- | --- | --- | --- | --- |
| [N-]=[N+]=NC(c1ccccc1)(c1ccccc1)c1ccccc1 | > 100 | 31.4 | 38.4 | 45.3 | 35.7 | 34.1 | 27.8 | 30 | 29.1 | 26.8 | – | – | – | – | – | – | – |
| CC(C)=CCC[C@@H](C)c1c(O)c(O)c(C)c2nccnc12 | > 100 | 50.5 | > 79.8 | > 100 | > 100 | 17.7 | > 100 | 45.9 | 45.2 | 18.9 | – | – | – | – | – | – | – |
| Cc1ccnc(NS(=O)(=O)c2ccc(N=[N+]=[N-])cc2)n1 | > 100 | > 100 | > 100 | > 100 | > 100 | > 100 | > 100 | > 100 | > 100 | > 100 | – | – | – | – | – | – | – |
| Nc1nc2c(c(-c3cccc(Cl)c3)n1)COC/C2=C\c1cccc(Cl)c1 | > 100 | > 100 | > 100 | > 100 | > 100 | > 100 | > 100 | 76.3 | > 100 | > 100 | – | – | – | – | – | – | – |
| C#CCn1c(=O)c2ccccc2n(CC#C)c1=O | > 10 | – | > 10 | > 10 | > 10 | > 10 | > 10 | > 10 | > 10 | > 10 | – | – | – | – | – | – | – |
| Oc1ccccc1CNCc1nc2ccccc2[nH]1 | – | > 100 | > 100 | > 100 | > 100 | 61.5 | > 100 | 49.1 | 57.6 | 65.6 | – | – | – | – | – | – | – |
| CCOC(=O)Nc1sc2c(c1C#N)CCCC2 | > 100 | > 100 | – | > 100 | > 100 | – | > 100 | > 100 | > 100 | > 100 | – | – | – | – | – | – | – |
| Nn1c(-c2ccccc2)n[nH]c1=O | > 100 | > 100 | > 100 | > 100 | > 100 | > 100 | > 100 | > 100 | > 100 | > 100 | – | – | – | – | – | – | – |
| O=C1c2cc3c(cc2-c2c1c1ccc(F)cc1c(=O)n2C[C@H](O)[C@@H](O)[C@H](O)CO)OCO3 | 0.22 | 0.123 | 0.15 | 0.137 | 0.151 | – | 3.05 | – | – | 0.183 | 32.4 | 25 | 22.9 | 29.9 | 11.9 | 308 | 56.8 |
| Nn1c(Nc2ccc(S(=O)(=O)Nc3ncccn3)cc2)nnc(/C=C/c2c(O)ccc3ccccc23)c1=O | – | 52.6 | 96.8 | > 100 | 60.3 | 79.7 | 69.6 | > 100 | 67.3 | – | – | – | – | – | – | – | – |
| COc1ncc(/C=C2\OC(=O)c3ccccc32)c(OC)n1 | – | – | > 100 | > 100 | > 100 | > 100 | > 100 | > 100 | > 100 | 58.7 | – | – | – | – | – | – | – |
| COC(=O)[C@@H](O)[C@](O)(CCC(C)C)C(=O)O[C@@H]1C(OC)=C[C@]23CCCN2CCc2cc4c(cc2[C@H]13)OCO4 | 8.12 | 29.4 | – | 5.21 | 2.18 | 71.4 | 6.09 | 8.42 | – | 5.99 | – | – | – | – | – | – | – |
| CC1(C(=O)O)CCC2(C)CCC3(C)C(=CC(=O)C4C5(C)CCC(O)C(C)(C)C5CCC43C)C2C1 (centres undefined) | > 100 | 42.5 | 99.1 | 41.8 | > 100 | > 100 | > 100 | 57.1 | 42.2 | 54.3 | – | – | – | – | – | – | – |
| Cc1ccc(NC(=O)CC2Sc3ccccc3NC2=O)cc1C (centres undefined) | > 100 | > 100 | – | > 100 | – | – | > 100 | > 100 | > 100 | > 100 | – | – | – | – | – | – | – |
| CC(=O)N1C(C(=O)NC2CCCCC2)CSC1c1ccccc1 (centres undefined) | > 100 | > 100 | – | > 100 | > 100 | > 100 | > 100 | > 100 | > 100 | > 100 | – | – | – | – | – | – | – |
| CCN(CC)CCNC(=O)c1cc2cc(NC(=O)c3cc4cc([N+](=O)[O-])ccc4[nH]3)ccc2[nH]1 | 71.4 | 87.5 | > 100 | > 100 | > 100 | > 100 | > 100 | > 100 | > 100 | > 100 | – | – | – | – | – | – | – |
| Nc1nc(SCCC/C=C/I)nc2c1ncn2C1OC(COP(=O)(O)O)C(O)C1O (centres undefined) | > 100 | > 100 | – | > 100 | – | – | > 100 | – | > 100 | > 100 | – | – | – | – | – | – | – |
| C=CC1(CC/C(=C\[N+](=O)[O-])c2ccc(OC)c(OC)c2)OCC(C)(C)CO1 | 60.4 | 29.4 | 33.2 | 55.8 | > 100 | 35.5 | 40.1 | 31.6 | 37.9 | 87.2 | – | – | – | – | – | – | – |
| CCC(=O)NC(Nc1cc(C)on1)(C(F)(F)F)C(F)(F)F | > 100 | > 100 | > 100 | > 100 | > 100 | > 100 | > 100 | > 100 | > 100 | > 100 | – | – | – | – | – | – | – |
| CCOP(=O)(OCC)C(F)(F)c1ccc(CC(NC(=O)OC(C)(C)C)C(=O)O)cc1 (centres undefined) | > 10 | > 10 | > 10 | > 10 | > 10 | > 10 | > 10 | > 10 | > 10 | > 10 | – | – | – | – | – | – | – |
| O=[N+]([O-])c1ccc2[nH]nc(OCc3ccccc3Cl)c2c1 | 31.9 | 88.8 | 42.9 | > 100 | – | > 100 | > 100 | – | 62.1 | > 100 | – | – | – | – | – | – | – |
| Cc1ccc(-c2csc(=Nc3ccccc3)n2NC(=O)c2ccncc2)cc1 | > 100 | 70.6 | 58.7 | > 100 | > 100 | > 90.5 | > 100 | > 100 | > 100 | 34.8 | – | – | – | – | – | – | – |

Reference: PubChem BioAssay (NCI)
